Values joined by “and” are separate entries in the source; they are usually repeats but may differ in a detail not shown here. Equal values may be shown once.

The test system of the assay is 276233-004-R-J1-PDC complex spheroid viability. Description: Anticancer human tumor 276233-004-R-J1-PDC patient-derived colon adenocarcinoma cell line growth inhibition [GQUAD]. The settings on record: for viability, T/C: stronger effect = lower value. An excerpt:
DNA G-quadruplex Stabilizer Agents in Combinations in Complex Spheroids
A high-throughput screen of multi-cell type tumor spheroids was designed to identify active combinations of DNA G-quadruplex stabilizer agents and targeted small molecules. Complex spheroids include a stromal component modeled by human endothelial cells (HUVEC) and fibroblasts modeled by human mesenchymal stem cells (MSCs). The concentration ranges selected for each drug and investigational agent were based upon clinically achievable concentrations if the clinical Cmax of the agent was known.
Compounds. The drugs and investigational agents: pidnarulex (CX-5461; NSC782164), APTO-253 (NSC789042), BRACO-19 (NSC847499), peposertib (NSC802822), ceralasertib (NSC780249), elimusertib (NSC800525), camonsertib (NSC841442), AZD-1390 (NSC803789), olaparib (NSC753686), talazoparib (NSC767125), ART-558 (NSC835418), sotorasib (NSC818433), MRTX-1133 (NSC836407), SN-38 (NSC673596), topotecan (NSC609699), etoposide (NSC141540), doxorubicin (NSC123127), gemcitabine (NSC613327), 5-fluorouracil (NSC19893), paclitaxel (NSC125973), vemurafenib (NSC761431), panobinostat (NSC761190), R-306465 (JNJ-16241199; NSC773264), adavosertib (NSC754352), TP-3654 (NSC805149), carboplatin (NSC241240), KSQ-4279 (NSC840948), and staurosporine (NSC755774) were obtained from the National Cancer Institute (NCI) Developmental Therapeutics Program Chemical Repository (34). The FDA-approved anticancer drug set is available from the NCI Developmental Therapeutics Program. […] The stock solutions were prepared in dimethyl sulfoxide (DMSO, Sigma-Aldrich, St. Louis, MO, cat. D2650) at 800-fold the tested concentration and stored at -70 degrees C prior to their use. All drugs and investigational agents were tested over a range starting from a high concentration at or near the clinical Cmax and decreasing in half-log increments. If the clinical Cmax for an agent had not been determined, the highest concentration tested was 10 microM.
2.3 Cell Culture. All cells were maintained in an incubator at 37 degrees C and 5% CO2 with 95% humidity. The PDC lines were cultured according to standard operating procedures established by the NCI PDMR. All PDCs were thawed and cultured in Matrigel-coated flasks prepared with a working solution of 1X Ham's F-12 nutrient mix, without supplementation (Invitrogen, cat. 11765054), 100 U/mL penicillin-streptomycin (Invitrogen, cat. 15140122), and 2.5% Matrigel (Corning Inc., cat. 354248) for the first three passages. The 857933-349-R-J2-PDC line was cultured in 6C/Colon 1B media, which includes advanced DMEM/F-12 (Thermo Fisher Scientific, cat. 12634028), 10 mM HEPES (Thermo Fisher Scientific, cat. 15630080), 1X GlutaMAX supplement (Thermo Fisher Scientific, cat. 35050061), 0.1 mg/mL primocin (InvivoGen, cat. ant-pm-2), 10% defined fetal bovine serum, heat inactivated (HyClone Laboratories Inc., cat. SH30070.03HI), 50% L-WRN conditioned media (ATCC, cat. CRL-3276), 1.25 mM N-Acetyl-L-cysteine (Sigma-Aldrich, cat. A9165), 10 mM nicotinamide (Sigma-Aldrich, cat. N0636), 1X B-27 supplement (Thermo Fisher Scientific, cat. 17504044), 1X N-2 supplement (Thermo Fisher Scientific, cat. 17502048), 10 microM Y-27632 dihydrochloride (Tocris Bioscience, cat. 1254), and 50 ng/mL human EGF recombinant protein (Thermo Fisher Scientific, cat. PHG0311). The 485176-168-R4-J1-PDC line was cultured in Panc media, which includes all 6C/Colon 1B media components plus 100 ng/mL human FGF-10 (Thermo Fisher Scientific, cat. 100-26), 500 nM SB-431542 (Selleckchem, cat. S1067), and gastrin (Tocris, cat. 3006).
[…]

Setting [1] is: curve of first compound, second compound 0.0316 µM.
[2] abbreviates: curve of first compound, second compound 0.1 µM.
Where [3] appears, read: curve of first compound, second compound 0.316 µM.
[4] abbreviates: curve of first compound, second compound 1 µM.
The mark [5] stands for this setting: curve of first compound, second compound 3.16 µM.
[6] abbreviates: curve of first compound, second compound 10 µM.
[7] abbreviates: second compound 0.0316 µM, first compound 0.0316 µM.
The mark [8] stands for this setting: second compound 0.0316 µM, first compound 0.316 µM.
The mark [9] stands for this setting: second compound 0.1 µM, first compound 0.0316 µM.
The mark [10] stands for this setting: second compound 0.1 µM, first compound 0.316 µM.
[11] abbreviates: second compound 0.316 µM, first compound 0.0316 µM.
[12] abbreviates: second compound 0.316 µM, first compound 0.316 µM.
[13] abbreviates: second compound 1 µM, first compound 0.0316 µM.
[14] abbreviates: second compound 1 µM, first compound 0.316 µM.
Where [15] appears, read: second compound 3.16 µM, first compound 0.0316 µM.
[16] abbreviates: second compound 3.16 µM, first compound 0.316 µM.
[17] abbreviates: second compound 10 µM, first compound 0.0316 µM.
Where [18] appears, read: second compound 10 µM, first compound 0.316 µM.
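Further: spheroids exposed to drugs for seven days.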
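Wherever viability, T/C is given: 100% = DMSO vehicle control viability.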

Consider `Cc1[nH]c2ccccc2c1CCNCc1ccc(/C=C/C(=O)NO)cc1` + Cc1[nH]c2ccc(F)cc2c1-c1nc2c3cccnc3c3ncccc3c2[nH]1, for which the IC50 is 102 nM under setting [1]; 72.1 nM under setting [2]; 45.2 nM under setting [3]; 39 nM under setting [4]; less than 0.999 nM under setting [5]; less than 0.999 nM under setting [6]. The viability, T/C was 82.7% (second compound 0.0316 µM, first compound 0.000999 µM); 100% (second compound 0.0316 µM, first compound 0.00316 µM); 82.1% (second compound 0.0316 µM, first compound 0.00999 µM); 96% under setting [7]; 50.5% (second compound 0.0316 µM, first compound 0.0999 µM); 13.1% under setting [8]. Further, the viability, T/C is, setting by setting: (second compound 0.1 µM, first compound 0.000999 µM) 76.9%; (second compound 0.1 µM, first compound 0.00316 µM) 84.2%; (second compound 0.1 µM, first compound 0.00999 µM) 62.8%; under setting [9], 68%; (second compound 0.1 µM, first compound 0.0999 µM) 43.9%; under setting [10], 10.9%. Further, the viability, T/C is 64.2% (second compound 0.316 µM, first compound 0.000999 µM); 62.3% (second compound 0.316 µM, first compound 0.00316 µM); 46.5% (second compound 0.316 µM, first compound 0.00999 µM); 64% under setting [11]; 26.4% (second compound 0.316 µM, first compound 0.0999 µM); 32.4% under setting [12]. Besides, the viability, T/C is 58.9% (second compound 1 µM, first compound 0.000999 µM); 44.6% (second compound 1 µM, first compound 0.00316 µM); 65.7% (second compound 1 µM, first compound 0.00999 µM); 50.8% under setting [13]; 37.1% (second compound 1 µM, first compound 0.0999 µM); 7.17% under setting [14]. Also, the viability, T/C by setting is: (second compound 3.16 µM, first compound 0.000999 µM) 18.3%; (second compound 3.16 µM, first compound 0.00316 µM) 15.9%; (second compound 3.16 µM, first compound 0.00999 µM) 21.4%; under setting [15], 13.6%; (second compound 3.16 µM, first compound 0.0999 µM) 7.05%; under setting [16], 6.05%. Also, the viability, T/C (second compound 10 µM, first compound 0.000999 µM) is 35.8%; the viability, T/C (second compound 10 µM, first compound 0.00316 µM) was 45.9%; the viability, T/C (second compound 10 µM, first compound 0.00999 µM) is 36.5%; the viability, T/C under setting [17] is 39.7%; the viability, T/C (second compound 10 µM, first compound 0.0999 µM) was 35.3%; the viability, T/C under setting [18] is 17.5%.

`CC[C@@]1(O)C(=O)OCc2c1cc1n(c2=O)Cc2cc3c(CN(C)C)c(O)ccc3nc2-1`: the viability, T/C was 102% and 92.8% and 107% (compound 0.000999 µM); 95.6% and 106% and 94.4% (compound 0.00316 µM); 89.3% and 96.7% and 96.9% (compound 0.00999 µM); 97.6% and 112% and 79.8% (compound 0.0316 µM); 97.6% and 102% and 99.8% (compound 0.0999 µM); 90.9% and 107% and 98.6% (compound 0.316 µM). In addition, the IC50 (curve of compound) is greater than 316 nM.

On to `CC1COCCN1c1cc(C2(S(C)(=N)=O)CC2)nc(-c2ccnc3[nH]ccc23)n1` (stereo not given), for which the viability, T/C runs as follows: (compound 0.0316 µM) 103% (2×) and 89.1%; (compound 0.1 µM) 92.5% and 89% and 63%; (compound 0.316 µM) 96.4% and 75.8% and 79.6%; (compound 1 µM) 93.7% and 76% and 77.1%; (compound 3.16 µM) 89.8% and 75.2% and 74.9%; (compound 10 µM) 68.3% and 69.6% and 60.1%. For the same compound, under “curve of compound”, the IC50 was greater than 10000 nM.

On to `CC1COCCN1c1cc(C2(O)CC3CCC(C2)O3)c2cnn(-c3ccn[nH]3)c2n1` (stereo not given), for which the viability, T/C by setting is: (compound 0.0316 µM) 98% and 89.3% and 74.2%; (compound 0.1 µM) 74.3% and 88.6% and 73.8%; (compound 0.316 µM) 65.7% and 71% and 68.6%; (compound 1 µM) 59.9% and 61.2% and 68.8%; (compound 3.16 µM) 56.3% and 54.3% and 63.9%; (compound 10 µM) 41.6% and 47.4% and 45.6%. Besides, the IC50 (curve of compound) was 3920 nM and 6860 nM and 7560 nM.

For the compound `COc1ccc([C@@H](O)c2cc(-c3ncnc4cc(N5CCOCC5)ccc34)c(F)cc2Cl)nn1` + Cc1[nH]c2ccc(F)cc2c1-c1nc2c3cccnc3c3ncccc3c2[nH]1, the IC50 was greater than 10000 nM under setting [1]; greater than 10000 nM under setting [2]; greater than 10000 nM under setting [3]; 5020 nM under setting [4]; 424 nM under setting [5]; 352 nM under setting [6]. The viability, T/C is 89.6% under setting [7]; 77.9% (second compound 0.0316 µM, first compound 0.1 µM); 97.2% under setting [8]; 72.6% (second compound 0.0316 µM, first compound 1 µM); 72.6% (second compound 0.0316 µM, first compound 3.16 µM); 68.7% (second compound 0.0316 µM, first compound 10 µM). Further, the viability, T/C under setting [9] was 88.3%; the viability, T/C (second compound 0.1 µM, first compound 0.1 µM) is 79.6%; the viability, T/C under setting [10] was 70.5%; the viability, T/C (second compound 0.1 µM, first compound 1 µM) is 74%; the viability, T/C (second compound 0.1 µM, first compound 3.16 µM) was 72.7%; the viability, T/C (second compound 0.1 µM, first compound 10 µM) is 65.7%. Further, the viability, T/C under setting [11] was 87.8%; the viability, T/C (second compound 0.316 µM, first compound 0.1 µM) was 79.4%; the viability, T/C under setting [12] is 96%; the viability, T/C (second compound 0.316 µM, first compound 1 µM) is 80.9%; the viability, T/C (second compound 0.316 µM, first compound 3.16 µM) is 70.9%; the viability, T/C (second compound 0.316 µM, first compound 10 µM) was 61.2%. For the same compound, the viability, T/C is, setting by setting: under setting [13], 61.1%; (second compound 1 µM, first compound 0.1 µM) 70.1%; under setting [14], 67%; (second compound 1 µM, first compound 1 µM) 62.2%; (second compound 1 µM, first compound 3.16 µM) 50.4%; (second compound 1 µM, first compound 10 µM) 44.5%. Besides, the viability, T/C reads like this: under setting [15], 59%; (second compound 3.16 µM, first compound 0.1 µM) 51.7%; under setting [16], 51.1%; (second compound 3.16 µM, first compound 1 µM) 49.1%; (second compound 3.16 µM, first compound 3.16 µM) 33.3%; (second compound 3.16 µM, first compound 10 µM) 24.1%. In addition, the viability, T/C by setting is: under setting [17], 53.4%; (second compound 10 µM, first compound 0.1 µM) 48%; under setting [18], 53%; (second compound 10 µM, first compound 1 µM) 41.5%; (second compound 10 µM, first compound 3.16 µM) 29%; (second compound 10 µM, first compound 10 µM) 25.6%.

The values are drawn from PubChem BioAssay AID2060496 (Molecular Pharmacology Branch, DTP, NCI, 2025).
